Data on two molecules can be found in patent US20140329682A1, “METHOD OF CONTROLLING WEED IN A SUGAR CANE FIELD” (SUMITOMO CHEMICAL COMPANY, LIMITED, priority 2011, published 2014).

In data set [1] the test system is sugar cane. The data set is described as follows: Phytotoxicity on sugar cane, spray above weed before planting, azole-fungicide-treated stem cutting (Example 11). The method, then: (§1) The “phytotoxicity” evaluated herein is the damage characteristic determined to be due to a treated compound, and is clearly discriminated from the damage characteristic caused by a harmful animal or plant disease.
A soil is packed into a plastic pat, and seeds of Amaranthus retroflexus are seeded thereon. Thereafter, the pot is placed in a greenhouse, and the weed is grown.
(§2) A 30 cm to 40 cm stem cutting of sugar cane is placed on a wet soil, and germination is stimulated. The stem cutting from which a bud has grown to about 1 cm is selected, and the length of the stem cutting is adjusted to be 3 cm so that the stem cutting has one node. Azaconazole, bitertanol, bromoconazole, cyproconazole, difenoconazole, diniconazole, epoxyconazole, fenbuconazole, fluquinconazole, flusilazole, flutriafol, hexaconazole, imibenconazole, ipconazole, metconazole, myclobutanil, penconazole, propiconazole, prothioconazole, simeconazole, tebuconazole, tetraconazole, triadimenol, triticonazole, fenarimol, nuarimol, pyrifenox, imazalil, oxpoconazole fumarate, pefurazoate, procloraz or triflumizole is adhered to the stem cutting.
(§3) The pot for a test is placed in a greenhouse.

Data set [2] deals with sugar cane. The data set is described as follows: Phytotoxicity on sugar cane, spray above weed before planting, strobilurin-treated stem cutting (Example 9). The settings on record: Example 9; sprayed above weed; 3 cm stem cutting treated with kresoxim-methyl, azoxystrobin or another listed strobilurin fungicide planted one week after treatment; four weeks after treatment. The method, then: as §1
(§4) A soil is packed into a plastic pot, and seeds of Amaranthus retroflexus are seeded thereon. Thereafter, the pot is placed in a greenhouse, and the weed is grown.
A 30 cm to 40 cm stem cutting of sugar cane is placed on a wet soil, and germination is stimulated. The stem cutting from which a bud has grown to about 1 cm is selected, and the length of the stem cutting is adjusted to be 3 cm so that the stem cutting has one node. Kresoxim-methyl, azoxystrobin, trifloxystrobin, fluoxastrobin, picoxystrobin, pyraclostrobin, dimoxystrobin, pyribencarb, metominostrobin, orysastrobin, enestrobin, pyraoxystrobin or pyrametostrobin is adhered to the stem cutting.
as §3

For data set [3], the system named is Amaranthus retroflexus. The data set is described as follows: Herbicidal activity, soil surface spray, strobilurin-treated stem cutting (Example 8). Format: in vivo. The settings on record: 3 cm stem cutting treated with kresoxim-methyl, azoxystrobin or another listed strobilurin fungicide, four weeks after treatment.
From the text: A 30 cm to 40 cm stem cutting of sugar cane is placed on a wet soil, and germination is stimulated. The stem cutting from which a bud has grown to about 1 cm is selected, and the length of the stem cutting is adjusted to be 3 cm so that the stem cutting has one node. Kresoxim-methyl, azoxystrobin, trifloxystrobin, fluoxastrobin, picoxystrobin, pyraclostrobin, dimoxystrobin, pyribencarb, metominostrobin, orysastrobin, enestrobin, pyraoxystrobin or pyrametostrobin is adhered to the stem cutting. A soil is packed into a plastic pot, and seeds of Amaranthus retroflexus are seeded thereon. The stem cutting of sugar cane treated with kresoxim-methyl, azoxystrobin, trifloxystrobin, fluoxastrobin, picoxystrobin, pyraclostrobin, dimoxystrobin, pyribencarb, metominostrobin, orysastrobin, enestrobin, pyraoxystrobin or pyrametostrobin is planted in the soil packed into the pot at a depth of 2 cm. […] Thereafter, the pot for a test is placed in a greenhouse.
In data set [4] the test system is Amaranthus retroflexus. As to the kind of experiment: Herbicidal activity, spray above weed one week before planting (Example 5). The settings on record: sprayed above weed three weeks after seeding, 3 cm stem cutting planted one week after treatment, four weeks after treatment. Format: in vivo.
Data set [5] deals with Amaranthus retroflexus. As to the kind of experiment: Herbicidal activity, spray above weed before planting, metalaxyl-treated stem cutting (Example 13). Format: in vivo. The settings on record: sprayed above weed, 3 cm stem cutting treated with metalaxyl or metalaxyl-M planted one week after treatment, four weeks after treatment.
Protocol: A soil is packed into a plastic pot, and seeds of Amaranthus retroflexus are seeded thereon. Thereafter, a pot is placed in a greenhouse, and the weed is grown.
A 30 cm to 40 cm stem cutting of sugar cane is placed on a wet soil, and germination is stimulated. The stem cutting from which a bud has grown to about 1 cm is selected, and the length of the stem cutting is adjusted to be 3 cm so that the stem cutting has one node. Metalaxyl or metalaxyl-M is adhered to the stem cutting.
Data set [6] deals with sugar cane. The data set is described as follows: Phytotoxicity on sugar cane, soil surface spray, insecticide-treated stem cutting (Example 6).
From the text: as §1
A 30 cm to 40 cm stem cutting of sugar cane is placed on a wet soil, and germination is stimulated. The stem cutting from which a bud has grown to about 1 cm is selected, and the length of the stem cutting is adjusted to be 3 cm so that the stem cutting has one node. Clothianidin, thiamethoxiam, imidacloprid, dinotefuran, nitenpyram, acetamiprid or thiacloprid is adhered to the stem cutting. A soil is packed into a plastic pot, and seeds of Amaranthus retroflexus are seeded thereon. The stem cutting of sugar cane treated with clothianidin, thiamethoxiam, imidacloprid, dinotefuran, nitenpyram, acetamiprid or thiacloprid is planted in the soil packed into the pot at a depth of 2 cm. […] Thereafter, the pot for a test is placed in a greenhouse.

Data set [7] concerns Amaranthus retroflexus. As to the kind of experiment: Herbicidal activity, spray above weed before planting, azole-fungicide-treated stem cutting (Example 11). Format: in vivo. The settings on record: sprayed above weed, 3 cm stem cutting treated with azaconazole, bitertanol or another listed azole-type fungicide planted one week after treatment, four weeks after treatment.
Data set [8] deals with Amaranthus retroflexus. As to the kind of experiment: Herbicidal activity, spray above weed before planting, insecticide-treated stem cutting (Example 7). Format: in vivo. The settings on record: sprayed above weed, 3 cm stem cutting treated with clothianidin, thiamethoxiam, imidacloprid, dinotefuran, nitenpyram, acetamiprid or thiacloprid planted one week after treatment, four weeks after treatment.

In data set [9] the test system is Amaranthus retroflexus. As to the kind of experiment: Herbicidal activity, soil surface spray, insecticide-treated stem cutting (Example 6). Format: in vivo. The settings on record: 3 cm stem cutting treated with clothianidin, thiamethoxiam, imidacloprid, dinotefuran, nitenpyram, acetamiprid or thiacloprid, four weeks after treatment.
Data set [10] deals with sugar cane. The data set is described as follows: Phytotoxicity on sugar cane, spray above weed before planting, insecticide-treated stem cutting (Example 7). As to the method:
as §1, §4
A 30 cm to 40 cm stem cutting of sugar cane is placed on a wet soil, and germination is stimulated. The stem cutting from which a bud has grown to about 1 cm is selected, and the length of the stem cutting is adjusted to be 3 cm so that the stem cutting has one node. Clothianidin, thiamethoxiam, imidacloprid, dinotefuran, nitenpyram, acetamiprid or thiacloprid is adhered to the stem cutting.
as §3

The subject of data set [11] is sugar cane. As to the kind of experiment: Phytotoxicity on sugar cane, soil surface spray, azole-fungicide-treated stem cutting (Example 10).
From the text: as §1
as §2, with “30” for “30 cm”, “cutting. A soil is packed into a plastic pot, and seeds of Amaranthus retroflexus are seeded thereon. The stem cutting of sugar cane treated with azaconazole, bitertanol, bromoconazole, cyproconazole, difenoconazole, diniconazole, epoxyconazole, fenbuconazole, fluquinconazole, flusilazole, flutriafol, hexaconazole, imibenconazole, ipconazole, metconazole, myclobutanil, penconazole, propiconazole, prothioconazole, simeconazole, tebuconazole, tetraconazole, triadimenol, triticonazole, fenarimol, nuarimol, pyrifenox, imazalil, oxpoconazole fumarate, pefurazoate, procloraz or triflumizole is planted in the soil packed into the pot at a depth of 2 cm. […] Thereafter, the pot for a test is placed in a greenhouse.” for “cutting.”

Data set [12] deals with sugar cane. The data set is described as follows: Phytotoxicity on sugar cane, spray above weed one week before planting (Example 5). As to the method: as §1, §4
A 30 cm to 40 cm stem cutting of sugar cane is placed on a wet soil, and germination is stimulated. The stem cutting from which a bud has been grown to about 1 cm is selected, and the length of the stem cutting is adjusted to be 3 cm so that the stem cutting has one node.
as §3

The test system of data set [13] is Amaranthus retroflexus. As to the kind of experiment: Herbicidal activity, soil surface spray, metalaxyl-treated stem cutting (Example 12). Format: in vivo. The settings on record: 3 cm stem cutting treated with metalaxyl or metalaxyl-M, four weeks after treatment. The method, then: A soil is packed into a plastic pot. Seeds of Amaranthus retroflexus are seeded thereon.

Take `CCOc1cc(Oc2ccc(C(F)(F)F)cc2Cl)ccc1[N+](=O)[O-]` [oxyfluorfen]: the phytotoxicity entry in the data set with sugar cane [1] (Example 11, sprayed above weed, 3 cm stem cutting treated with azaconazole, bitertanol or another listed azole-type fungicide planted one week after treatment, four weeks after treatment) is recorded as “significant phytotoxicity on sugar cane is not observed”; in the data set on sugar cane [2], “significant phytotoxicity on sugar cane is not observed”; with sugar cane [6] (Example 6, 3 cm stem cutting treated with clothianidin, thiamethoxiam, imidacloprid, dinotefuran, nitenpyram, acetamiprid or thiacloprid, soil surface spray, four weeks after treatment), “significant phytotoxicity on sugar cane is not observed”; in the data set on sugar cane [10] (Example 7, sprayed above weed, 3 cm stem cutting treated with clothianidin, thiamethoxiam, imidacloprid, dinotefuran, nitenpyram, acetamiprid or thiacloprid planted one week after treatment, four weeks after treatment), “significant phytotoxicity on sugar cane is not observed”; in the data set on sugar cane [11] (Example 10, 3 cm stem cutting treated with azaconazole, bitertanol or another listed azole-type fungicide, soil surface spray, four weeks after treatment), “significant phytotoxicity on sugar cane is not observed”; in the data set with sugar cane [12] (Example 5, sprayed above weed three weeks after seeding, 3 cm stem cutting planted one week after treatment, four weeks after treatment), “significant phytotoxicity on sugar cane is not found”. Moreover, the “herbicidal activity against Amaranthus retroflexus” value (from here on “herbicidal activity”) with Amaranthus retroflexus [3], in the data set with Amaranthus retroflexus [4], with Amaranthus retroflexus [5], in the data set on Amaranthus retroflexus [7], in the data set on Amaranthus retroflexus [8] and with Amaranthus retroflexus [9] was “the controlling effect on a weed can be confirmed” in each case. For the same molecule, the “herbicidal activity” value in the data set on Amaranthus retroflexus [13] is reported as “the controlling effect on a weed can be confirmed”.
With `C#CCN1C(=O)COc2cc(F)c(-n3c(=O)n(C)c(=S)n(C)c3=O)cc21` [compound of the formula (I)], the phytotoxicity entry was “significant phytotoxicity on sugar cane is not observed” with sugar cane [1] (in vivo); “significant phytotoxicity on sugar cane is not observed” with sugar cane [2]; “significant phytotoxicity on sugar cane is not observed” in the data set with sugar cane [6] (in vivo); “significant phytotoxicity on sugar cane is not observed” in the data set on sugar cane [10] (in vivo); “significant phytotoxicity on sugar cane is not observed” with sugar cane [11] (in vivo); “significant phytotoxicity on sugar cane is not found” with sugar cane [12] (in vivo). Moreover, the “herbicidal activity” value in the data set with Amaranthus retroflexus [3], in the data set on Amaranthus retroflexus [4], in the data set with Amaranthus retroflexus [5], in the data set on Amaranthus retroflexus [7], in the data set on Amaranthus retroflexus [8] and in the data set on Amaranthus retroflexus [9] was “the controlling effect on a weed can be confirmed” in each case. In addition, in the data set on Amaranthus retroflexus [13], the “herbicidal activity” value is “the controlling effect on a weed can be confirmed”.
